Results from patent US20260191769A1, “DRUG ELUTING IMPLANTS AND USES THEREOF” (MUSC FOUNDATION FOR RESEARCH DEVELOPMENT, priority 2022, published 2026).
Like-named read-outs stand apart in the source and are kept apart here.

Test system: Methicillin-Resistant Staphylococcus aureus (MRSA)
Test: microbe, parasite or virus in culture
Protocol: At the prescribed time points, gels were removed and placed in active bacteria cultures for 24 hours. After 24 hours, the gels were removed and the bacteria zone of exclusion will be measured.
Briefly, Methicillin-Resistant Staphylococcus aureus (MRSA) was cultured in brain-heart infusion broth and diluted to match a 0.5 McFarland turbidity standard. The resulting culture was tested with gram stain to ensure the MRSA was present. After determining that the MRSA was indeed gram-positive and present, the MRSA was carefully spread onto 150 mm agar plates to inoculate the plates. 5 mcg and 30 mcg vancomycin loaded disks were placed on each agar plate as antibiotic controls. Six plates were run in this experiment, with three plates containing aliquots (from the eluates collected from the study of Example 1 Aim 1) with peroxide (FIG. 7A), while the other three plates contained aliquots run with collagenase & phosphate buffered saline (FIG. 7B).
Aliquots from days 3, 7, 14, 21, and 28 were run. 10 μL of each aliquot was pipetted onto filter paper and placed onto the agar plates. The agar plates were incubated for 24 hours at 37 degrees Celsius, and the zones of inhibition were measured the following morning.

`CN[C@H](CC(C)C)C(=O)N[C@H]1C(=O)N[C@@H](CC(N)=O)C(=O)N[C@H]2C(=O)N[C@H]3C(=O)N[C@H](C(=O)N[C@H](C(=O)O)c4cc(O)cc(O)c4-c4cc3ccc4O)[C@H](O)c3ccc(c(Cl)c3)Oc3cc2cc(c3O[C@@H]2O[C@H](CO)[C@@H](O)[C@H](O)[C@H]2O[C@H]2C[C@](C)(N)[C@H](O)[C@H](C)O2)Oc2ccc(cc2Cl)[C@H]1O` [Vanc., vancomycin] gave a zone of inhibition at 5 µg/disc (read-out: 5 mcg Vanc. zone of inhibition, average, 5 mcg vancomycin control disk, average of plates 1-3 (collagenase & phosphate buffered saline)) of 1.33 mm, a zone of inhibition at 5 µg/disc (read-out: 5 mcg Vanc. zone of inhibition, average, 5 mcg vancomycin control disk, average of plates 4-6 (peroxide)) of 1.33 mm and a zone of inhibition at 30 µg/disc (read-out: 30 mcg Vanc. zone of inhibition, average, 30 mcg vancomycin control disk, average of plates 1-3 (collagenase & phosphate buffered saline)) of 4.67 mm. It also gave a zone of inhibition at 30 µg/disc (read-out: 30 mcg Vanc. zone of inhibition, average, 30 mcg vancomycin control disk, average of plates 4-6 (peroxide)) of 4.33 mm.
